The values below come from patent US20170334899A1, “AMINO-SUBSTITUTED ISOTHIAZOLES” (Bayer Pharma Aktiengesellschaft, priority 2014, published 2017).

Assay [1] relates to human cervical tumor cell line HeLa (ATCC CCL-2). The assay can be described thus: SAC-Formation - Paclitaxel-Induced Assay. In kind it is cell-based. The settings on record: Homo sapiens, HeLa, 24 h, HeLa cells, paclitaxel 0.05 μM, test range 0.005 μM-20 μM, read-out: IC50 [mol/l] SAC-Formation - Paclitaxel-Induced Assay. Put shortly:
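Read-out is high-content imaging of anti-phospho-H3 Ser10 (mitosis) and Hoechst 33342 (DNA, cell number), with decreased mitotic fraction marking checkpoint breakthrough. Compounds (0.005–20 μM) and 0.05 μM paclitaxel co-added to overnight-plated HeLa for 24 h at 37° C; four-parameter Hill fit.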

Assay [2] concerns the target T1, CDK2/CycE (Homo sapiens, UniProt P24941).
T1 construct: GST; purchased ProQinase GmbH (Freiburg, Germany); host or cells: insect cells (Sf9)
The assay can be described thus: CDK2/CycE kinase assay (TR-FRET). In kind it is biochemical. The note with it: avg, read-out: CDK2 avg (IC50 [mol/l]). Put shortly: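 Read-out is a TR-FRET 665/620 nm emission ratio from EDTA-stopped reactions detected with anti-pRB(pSer807/pSer811), Eu-labelled anti-mouse IgG and streptavidin-XL665, scaled between no-enzyme and uninhibited wells. Reaction: Sf9-expressed GST-CDK2/GST-CycE, 15 min compound preincubation, 10 μM ATP, 0.75 μM biotin-peptide, 25 min, 22° C., pH 8.0 Tris buffer.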

With `Cc1nsc(Nc2cnc(C(F)(F)F)cn2)c1C(=O)Nc1ccc(OCCNC(=O)OC(C)(C)C)c(F)c1` [Example 215, tert-butyl [2-(2-fluoro-4-{[(3-methyl-5-{[5-(trifluoromethyl)pyrazin-2-yl]amino}-1,2-thiazol-4-yl)carbonyl]amino}phenoxy)ethyl]carbamate], the IC50 in assay [1] is 0.072 µM; in assay [2], more than 20 µM.
For `Cc1nsc(Nc2cnc3ccccc3n2)c1C(=O)Nc1ccc(NCC2CCN(C(=O)OC(C)(C)C)CC2)nc1` [Example 238, tert-butyl 4-({[5-({[3-methyl-5-(quinoxalin-2-ylamino)-1,2-thiazol-4-yl]carbonyl}amino)pyridin-2-yl]amino}methyl)piperidine-1-carboxylate], in that order: 9.7 µM and more than 20 µM.
Regarding `Cc1nsc(Nc2cncc(C(F)(F)F)n2)c1C(=O)Nc1ccc(F)c(C(N)=O)c1` [Example 204, N-(3-carbamoyl-4-fluorophenyl)-3-methyl-5-{[6-(trifluoromethyl)pyrazin-2-yl]amino}-1,2-thiazole-4-carboxamide], the IC50 in assay [1] is 0.45 µM; in assay [2], more than 20 µM.
The matching figures for `Cc1nsc(Nc2cncc(C(F)(F)F)n2)c1C(=O)Nc1ccc(OCCNC(=O)OC(C)(C)C)nc1` [Example 191, tert-butyl {2-[(5-{[(3-methyl-5-{[6-(trifluoromethyl)pyrazin-2-yl]amino}-1,2-thiazol-4-yl)carbonyl]amino}pyridin-2-yl)oxy]ethyl}carbamate]: 0.037 µM and 18 µM.
The matching figures for `Cc1nsc(Nc2cncc(C(F)(F)F)n2)c1C(=O)Nc1ccc(OC2CCCN(C(=O)OC(C)(C)C)C2)nc1` (centres unmarked) [Example 189, tert-butyl 3-[(5-{[(3-methyl-5-{[6-(trifluoromethyl)pyrazin-2-yl]amino}-1,2-thiazol-4-yl)carbonyl]amino}pyridin-2-yl)oxy]piperidine-1-carboxylate]: 0.45 µM and more than 20 µM.
Regarding `Cc1nsc(Nc2cnc(C(F)(F)F)cn2)c1C(=O)Nc1ccc(C(=O)NCCN2CCCC(F)C2)cc1` (centres unmarked) [Example 213, N-(4-{[2-(3-fluoropiperidin-1-yl)ethyl]carbamoyl}phenyl)-3-methyl-5-{[5-(trifluoromethyl)pyrazin-2-yl]amino}-1,2-thiazole-4-carboxamide], the IC50 was 2.9 µM in assay [1] and more than 20 µM in assay [2].
For `Cc1nsc(Nc2cnc3ccccc3n2)c1C(=O)Nc1ccc(Oc2ccc(SC(F)(F)F)cc2)nc1` [Example 233, 3-methyl-5-(quinoxalin-2-ylamino)-N-(6-{4-[(trifluoromethyl)sulfanyl]phenoxy}pyridin-3-yl)-1,2-thiazole-4-carboxamide], in that order: 4.1 µM and more than 20 µM.
